Where two headings read alike, the source gives them in different places.
Assays:
[1] = system: immunologically stimulated human basophils; test: Inhibition of histamine release from immunologically stimulated human basophils; format: cell-based; details: 1 h; human basophils challenged with anti-IgE or antigen; 60 minutes at 37° C.; active if ED50 ≤48 μM; read-out: ED50 (concentration which causes a 50% inhibition of histamine release)
Protocol: The novel compounds of this invention have been tested by the procedure of Lichtenstein, L. M. and Osler, A. G., J. Exp. Med., 120, 507-530 (1964), which evaluated the ability of compounds to inhibit mediator (histamine) release from immunologically stimulated human basophils.
Dissolve 140.3 g of sodium chloride, 7.45 g of potassium chloride and 74.5 g of Trizma-Tris Pre-Set, Reagent Grade, pH 7.6, at 25° C. (Sigma Chemical Co.) in sufficient water to give a final volume of 2 liters.
(Sigma Chemical Co.) (30 mg/ml)
Made to 0.75M and 0.5M respectively, with calcium chloride dihydrate and magnesium chloride hexahydrate.
A 10 ml portion of 10× Tris Buffer and 1.0 ml of human albumin are diluted to 100 ml with water.
A 10 ml portion of 10× Tris Buffer, 1.0 ml of human albumin, 0.8 ml of calcium stock and 0.2 ml of magnesium stock are diluted to 100 ml with water.
Behring Diagnostics (Generally used at […] final concentration).
Strength 1:100 (w:v) allergenic extract, Hollister-Stier Labs. Generally this is diluted 1:1000 to 1:10,000 (considering the vial as stock).
Intradermal solutions of intramuscular preparations for hyposensitization, Hollister-Stier Labs. The final concentration used is on the order of 1 PNU/ml.
Eighty milliliters of blood is withdrawn from subjects with known histamine release to anti-IgE, ragweed antigen or other specific allergen, using four 20 ml heparinized tubes. This 80 ml of blood is mixed with 20 ml of saline containing 0.6 g of dextrose and 1.2 g of dextran. The blood is allowed to sediment at room temperature in two 50 ml polycarbonate centrifuge tubes until a sharp interface develops between the red cells and plasma (60-90 minutes). The plasma (top) layer from each tube is withdrawn by pipet and transferred to respective 50 ml polycarbonate tubes. The plasma is centrifuged for 8 minutes at 110×G at 4° C. The supernatant is carefully poured off as completely as possible and the cell button is resuspended in 2-3 ml of Tris-A buffer using a silconized Pasteur pipet. The resuspension is accomplished by drawing the liquid gently in an out of the pipet, with the tip below the liquid, until and even suspension of cells is obtained. Sufficient Tris-A buffer is then added to bring the volume in the tube to about 45 ml and the tube is centrifuged at 110×G for 8 minutes at 4° C. The supernatant is poured off and the cell button is resuspended and centrifuged as described above. The supernatant is poured off and the cell button suspended in 2-3 ml of Tris-ACM buffer to make the final volume sufficient to allow addition to the reaction tubes.
Reaction tubes containing anti-IgE or antigens, either alone or with test compound in a total volume of 0.2 ml are prepared and placed in a 37° C. bath. The cells are warmed to 37° C. and frequently swirled to ensure and even suspension, while 1.0 ml aliquots are added to each reaction tube. The tubes are then incubated for 60 minutes at 37° C., vortexing the tubes gently every 15 minutes to keep the cells evenly suspended. When the reaction is complete, the tubes are centrifuged at 4° C. for 10 minutes at 1500 rpm to sediment the cells. One ml aliquots of supernatant are transferred to 12 mm by 75 mm polyethylene tubes and 0.2 ml of 8% perchloric acid is added to each tube. Blanks and totals are included in each test. The blanks have cells and all reagents except antigent or anti-IgE. The totals contain 0.24 ml of 8% perchloric acid, one ml of cells and 0.2 ml of buffer. […]

Neutrophil Lipoxygenase = target: T1, Neutrophil Lipoxygenase (Cavia porcellus, UniProt A0A286X958); test: Inhibition of neutrophil lipoxygenase (release and biosynthesis of LTB4 and 5-HETE) in guinea pig neutrophils; format: cell-based; details: 10 μg/ml compound, 100 μM arachidonic acid and 20 μM calcium ionophore (A23187), the lower the percentage, the more active
T1 construct: peritoneal neutrophils derived from guinea pigs; endogenous in cells; host or cells: guinea pig peritoneal neutrophils
T1 sequence (A0A286X958 1-674): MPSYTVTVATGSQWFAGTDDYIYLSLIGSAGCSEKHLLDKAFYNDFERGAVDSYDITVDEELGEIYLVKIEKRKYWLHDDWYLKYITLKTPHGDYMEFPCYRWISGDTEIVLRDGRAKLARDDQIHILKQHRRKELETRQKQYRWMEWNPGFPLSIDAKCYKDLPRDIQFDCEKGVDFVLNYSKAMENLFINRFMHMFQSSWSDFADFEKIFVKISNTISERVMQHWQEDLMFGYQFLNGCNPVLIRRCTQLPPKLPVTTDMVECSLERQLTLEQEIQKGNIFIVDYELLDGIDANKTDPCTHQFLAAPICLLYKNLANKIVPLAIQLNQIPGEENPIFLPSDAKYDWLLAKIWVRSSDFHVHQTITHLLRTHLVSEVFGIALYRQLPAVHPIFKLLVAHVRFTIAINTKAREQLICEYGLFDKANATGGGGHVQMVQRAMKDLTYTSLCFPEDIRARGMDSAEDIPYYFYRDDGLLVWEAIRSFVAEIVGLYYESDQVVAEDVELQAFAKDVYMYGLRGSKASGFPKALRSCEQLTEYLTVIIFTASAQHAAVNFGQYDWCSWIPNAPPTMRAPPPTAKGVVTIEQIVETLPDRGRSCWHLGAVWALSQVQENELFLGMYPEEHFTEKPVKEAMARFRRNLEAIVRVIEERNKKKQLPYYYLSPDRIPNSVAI
Protocol: The ability of these compounds to inhibit lipoxygenase activity in terms of the suppression of the release and biosynthesis of leukotriene B4 (LTB4) and 5-hydroxyeicosatetraenoic acid (5-HETE) was measured as follows.
In this assay 3×10^7 peritoneal neutrophils derived from guinea pigs were incubated at 37° C. in Dulbeccos buffer containing 50 mM tris buffer (pH 7.4). Five minutes before the addition of 100 μM arachidonic acid and 20 μM calcium ionophore (A23187), control vehicle or the test compounds were added to the neutrophils at a concentration of 10 μg/ml.
Three minutes after the addition of arachidonic acid and calcium ionophore the total lipid was partitioned into chloroform after adjusting the pH to 3 with citric acid and the addition of equal parts of methanol and chloroform.
The 5-HETE and LTB4 were resolved by HPLC using a 5M, 4×25 cm octadecyl silica column (IBM Instruments) with 70-80% methanol in water adjusted to pH 3.0 with acetic acid. As the mobile phase was pumped at 1.0 ml/minute, LTB4 and 5-HETE were detected by absorbance at 270 and 236 nm, respectively.
LTB4 and 5-HETE were quantitated by comparison with the control and the results were expressed as a percent of control.

[2] = 5-HETE, read-out: 5-HETE, % of Control
[3] = LTB4, read-out: LTB4, % of Control

| IC50 [1] [µM] | remaining activity at 10 µg/mL (Neutrophil Lipoxygenase; [2]) [%] | remaining activity at 10 µg/mL (Neutrophil Lipoxygenase; [3]) [%] | SMILES |
| --- | --- | --- | --- |
| 17.4 |  |  | CCOC(=O)N1CCN(C2=CC(=O)c3ncccc3C2=O)CC1 [4-(5,8-Dihydro-5,8-dioxo-6-quinolyl)-1-piperazinecarboxylic acid ethyl ester] |
| 3.7 |  |  | CCOC(=O)N1CCN(C2=CC(=O)c3nccnc3C2=O)CC1 [4-(5,8-dihydro-5,8-dioxo-6-quinoxalinyl)-1-piperazine carboxylic acid ethyl ester] |
| 1.2 | 67.2 | 8 | O=C1C=C(N2CCN(c3nc4ccccc4s3)CC2)C(=O)c2nccnc21 [6-[4-(2-Benzothiazoyl)-1-piperazinyl]-5,8-quinoxalinedione] |
|  | 36.9 | 8 | O=C1C(N2CCN(c3nc4ccccc4o3)CC2)=CC(=O)c2ncccc21 [6-[4-(2-Benzoxazolyl)-1-piperazinyl]-5,8-quinolinedione] |
| 12.1 |  |  | O=C1C(N2CCN(Cc3ccccc3)CC2)=CC(=O)c2ncccc21 [6-[4-(Phenylmethyl)-1-piperazinyl]-5,8-quinolinedione] |
| 6.6 | 1.6 | 0 | O=C1C=C(N2CCN(c3cccc(C(F)(F)F)c3)CC2)C(=O)c2nccnc21 [6-[4-[3-(Trifluoromethyl)phenyl]-1-piperazinyl]-5,8-quinoxalinedione] |
|  | 11.9 | 5.7 | O=C1C(N2CCN(c3cccc(C(F)(F)F)c3)CC2)=CC(=O)c2ncccc21 [6-[4-[3-(Trifluromethyl)phenyl]-1-piperazinyl]-5,8-quinolinediones] |
|  | 53.9 | 8 | O=C1C=C(N2CCN(Cc3ccccc3)CC2)C(=O)c2nccnc21 [6[4-(Phenylmethyl)-1-piperazinyl]-5,8-quinoxalinedione] |
|  | 22.7 | 35.8 | O=C1C=C(N2CCN(c3nc4ccccc4o3)CC2)C(=O)c2ncccc21 [7-[4-(2-Benzoxazolyl)-1-piperazinyl]-5,8-quinolinedione] |

Reference: patent US4742059A, “Substituted quinoxalinediones and their methods of use” (American Cyanamide Company, priority 1987, dated 1988)
